# According to ChEMBL document CHEMBL3774371, “Pyrrolidinones as Modulators of Neurogenesis” (2016):
# Tested on: NSC
# Assay: Neurogenic activity in human NSC assessed as increase in cells measured as ATP level after 4 days by Cell titre glo assay
# Type: functional
row,SMILES,EC150 [µM]
1,COc1cccc(CC2CCN(c3ccc(-c4cn[nH]c4)c(OC)c3)C2=O)c1 (stereo not drawn),0.0239
2,COc1cccc(C2CCN(c3ccc(-c4cn[nH]c4)cc3)C2=O)c1 (stereo not drawn),0.0405
3,CCOc1cc(N2CCN(CCc3ccccc3OC)C2=O)ccc1-c1cn[nH]c1,1.9784
4,COc1cc(N2CCC(c3ccccc3)C2=O)ccc1-c1cnco1 (stereo not drawn),0.4712
5,COc1cc(N2CCN(Cc3cccc(C(F)(F)F)c3)C2=O)ccc1-c1cn[nH]c1,0.0086
6,O=C1C(c2ccc(F)cc2)CCN1c1ccc(-c2cn[nH]c2)cc1 (stereo not drawn),0.0417
7,COc1cccc(CN2CCN(c3ccc(-c4cn[nH]c4)c(F)c3)C2=O)c1,0.0157
8,COc1cc(N2CCN(Cc3ccncc3)C2=O)ccc1-c1cn[nH]c1,0.042
9,COc1cc(N2CCC(c3ccccc3Cl)C2=O)ccc1-c1cnco1 (stereo not drawn),0.6783
10,CCC1(c2ccccc2)CCN(c2ccc(-c3cnco3)c(OC)c2)C1=O (stereo not drawn),3.2257
11,CCOc1cccc(CN2CCN(c3ccc(-c4cn[nH]c4)c(OC)c3)C2=O)c1,0.0739
12,COc1cc(N2CCN(Cc3cccc(OC(F)(F)F)c3)C2=O)ccc1-c1cn[nH]c1,0.0092
13,O=C1C(c2ccc(Cl)cc2)CCN1c1ccc(-c2cn[nH]c2)cc1 (stereo not drawn),0.384
14,O=C1C(c2cccc(Cl)c2)CCN1c1ccc(-c2cn[nH]c2)cc1 (stereo not drawn),0.2304
15,CCOc1cc(N2CCN(CCc3ccccc3Cl)C2=O)ccc1-c1cn[nH]c1,0.1358
16,COc1cc(N2CCC(c3cccc(F)c3)C2=O)ccc1-c1cn[nH]c1 (stereo not drawn),0.0776
17,CCOc1cc(N2CCN(Cc3cccc(OC)c3)C2=O)ccc1-c1cn[nH]c1,0.8349
18,COc1cc(N2CCCN(Cc3ccccc3Cl)C2=O)ccc1-c1cn[nH]c1,1.9918
